Results taken from publication PMC6274419, “Synthesis and Anticancer Activities of Glycyrrhetinic Acid Derivatives” (Molecules, 2016).
Structures can show the parent of a compound that is named as a salt.

Key:
hTERT-RPE1 cells = test: MTT cytotoxicity assay, hTERT-RPE1 normal cells; assay type: cell-based, human; details: normal human retinal pigment epithelial cell line hTERT-RPE1, MTT method, 24 h treatment, mean ± SD; read-out: IC50 hTERT-RPE1
Protocol: (§1) The anticancer activities of compounds 17–24, 41–56 against MCF-7, MDA-MB-231 and hTERT-RPE1 cells were determined in vitro by an MTT assay. […] The data was calculated and presented as IC50 values in Table 1.
(§2) The cytotoxicities of the compounds were evaluated by the MTT assay, which is based on the conversion of MTT to formazan crystals by mitochondrial dehydrogenases. […] The medium was incubated with 20 μL of 5 mg/mL MTT solution for 3 h in a humidified incubator containing 5% CO2. The purple coloured formazan crystals formed in the wells were dissolved in DMSO and their absorbances were measured at 570 nm with a microplate reader. Cell viability was expressed as a percentage of the value in control cultures.

MCF-7 cells = test: MTT cytotoxicity assay, MCF-7; assay type: cell-based, human; details: MCF7; human breast cancer cell line MCF-7, MTT method, 24 h treatment, mean ± SD; read-out: IC50 MCF-7
Protocol: as §1, §2

MDA-MB-231 cells = test: MTT cytotoxicity assay, MDA-MB-231; assay type: cell-based, human; details: human breast cancer cell line MDA-MB-231, MTT method, 24 h treatment, mean ± SD; read-out: IC50 MDA-MB-231
Protocol: The data was calculated and presented as IC50 values in Table 1.
as §2

| SMILES | melting point | IC50 (hTERT-RPE1 cells) | IC50 (MCF-7 cells) | IC50 (MDA-MB-231 cells) |
| --- | --- | --- | --- | --- |
| CCOC(=O)/C=C/c1ccc(OC)c(OC(=O)[C@@]2(C)CC[C@]3(C)CC[C@]4(C)C(=CC(=O)[C@@H]5[C@@]6(C)CC[C@H](OC(=O)[C@@H](N)CCSC)C(C)(C)[C@@H]6CC[C@]54C)[C@@H]3C2)c1 (as salt: hydrochloride) [Compound 51, Isoferulic acid ethyl ester 3β-(l-methionine)-11-oxo-olean-12-en-30-oate hydrochloride] | 192 to 195 °C |  |  |  |
| CCOC(=O)/C=C/c1ccc(OC)c(OC(=O)[C@@]2(C)CC[C@]3(C)CC[C@]4(C)C(=CC(=O)[C@@H]5[C@@]6(C)CC[C@H](OC(=O)[C@@H](N)CC[Se]C)C(C)(C)[C@@H]6CC[C@]54C)[C@@H]3C2)c1 (as salt: hydrochloride) [Compound 52, Isoferulic acid ethyl ester 3β-(l-selenomethionine)-11-oxo-olean-12-en-30-oate hydrochloride] | 196 to 198 °C |  |  |  |
| COC(=O)/C=C/c1cccc(OC(=O)[C@@]2(C)CC[C@]3(C)CC[C@]4(C)C(=CC(=O)[C@@H]5[C@@]6(C)CC[C@H](OC(=O)[C@@H](N)CCSC)C(C)(C)[C@@H]6CC[C@]54C)[C@@H]3C2)c1 (as salt: hydrochloride) [Compound 53, trans-3-Hydroxycinnamic acid methyl ester 3β-(l-methionine)-11-oxo-olean-12-en-30-oate hydrochloride] | 190 to 192 °C |  |  |  |
| COC(=O)/C=C/c1cccc(OC(=O)[C@@]2(C)CC[C@]3(C)CC[C@]4(C)C(=CC(=O)[C@@H]5[C@@]6(C)CC[C@H](OC(=O)[C@@H](N)CC[Se]C)C(C)(C)[C@@H]6CC[C@]54C)[C@@H]3C2)c1 (as salt: hydrochloride) [Compound 54, trans-3-Hydroxycinnamic acid methyl ester 3β-(l-selenomethionine)-11-oxo-olean-12-en-30-oate hydro-chloride] | 194 to 196 °C |  |  |  |
| CCOC(=O)/C=C/c1cccc(OC(=O)[C@@]2(C)CC[C@]3(C)CC[C@]4(C)C(=CC(=O)[C@@H]5[C@@]6(C)CC[C@H](OC(=O)[C@@H](N)CCSC)C(C)(C)[C@@H]6CC[C@]54C)[C@@H]3C2)c1 (as salt: hydrochloride) [Compound 55, trans-3-Hydroxycinnamic acid ethyl ester 3β-(l-methionine)-11-oxo-olean-12-en-30-oate hydrochloride] | 183 to 185 °C |  |  |  |
| CCOC(=O)/C=C/c1cccc(OC(=O)[C@@]2(C)CC[C@]3(C)CC[C@]4(C)C(=CC(=O)[C@@H]5[C@@]6(C)CC[C@H](OC(=O)[C@@H](N)CC[Se]C)C(C)(C)[C@@H]6CC[C@]54C)[C@@H]3C2)c1 (as salt: hydrochloride) [Compound 56, trans-3-Hydroxycinnamic acid ethyl ester 3β-(l-selenomethionine)-11-oxo-olean-12-en-30-oate hydrochloride] | 191 to 194 °C |  |  |  |
| CCOC(=O)/C=C/c1ccc(OC(=O)[C@@]2(C)CC[C@]3(C)CC[C@]4(C)C(=CC(=O)[C@@H]5[C@@]6(C)CC[C@H](O)C(C)(C)[C@@H]6CC[C@]54C)[C@@H]3C2)cc1 [Compound 20, trans-4-Hydroxycinnamic acid ethyl ester 3β-hydroxy-11-oxo-olean-12-en-30-oate] | 195 to 196 °C | 28.4 ± 0.87 µM | 24.4 ± 1.36 µM | 14.5 ± 0.58 µM |
| CCOC(=O)/C=C/c1cccc(OC(=O)[C@@]2(C)CC[C@]3(C)CC[C@]4(C)C(=CC(=O)[C@@H]5[C@@]6(C)CC[C@H](O)C(C)(C)[C@@H]6CC[C@]54C)[C@@H]3C2)c1 [Compound 24, trans-3-Hydroxycinnamic acid ethyl ester 3β-hydroxy-11-oxo-olean-12-en-30-oate] | 173 to 175 °C | 22.9 ± 0.68 µM | 19.3 ± 0.98 µM | 23.2 ± 1.07 µM |

Now from value to compound, other results behind:

| melting point | SMILES | IC50 (hTERT-RPE1 cells) | IC50 (MCF-7 cells) | IC50 (MDA-MB-231 cells) |
| --- | --- | --- | --- | --- |
| 229 to 231 °C | COC(=O)/C=C/c1ccc(OC(=O)[C@@]2(C)CC[C@]3(C)CC[C@]4(C)C(=CC(=O)[C@@H]5[C@@]6(C)CC[C@H](O)C(C)(C)[C@@H]6CC[C@]54C)[C@@H]3C2)c(OC)c1 [Compound 17, Ferulic acid methyl ester 3β-hydroxy-11-oxo-olean-12-en-30-oate] | 17.3 ± 1.21 µM | 13.6 ± 0.93 µM | 5.03 ± 0.82 µM |
| 224 to 226 °C | CCOC(=O)/C=C/c1ccc(OC(=O)[C@@]2(C)CC[C@]3(C)CC[C@]4(C)C(=CC(=O)[C@@H]5[C@@]6(C)CC[C@H](O)C(C)(C)[C@@H]6CC[C@]54C)[C@@H]3C2)c(OC)c1 [Compound 18, Ferulic acid ethyl ester 3β-hydroxy-11-oxo-olean-12-en-30-oate] | 22.8 ± 0.97 µM | 22.5 ± 1.26 µM | 8.14 ± 0.76 µM |
| 202 to 205 °C | COC(=O)/C=C/c1ccc(OC(=O)[C@@]2(C)CC[C@]3(C)CC[C@]4(C)C(=CC(=O)[C@@H]5[C@@]6(C)CC[C@H](O)C(C)(C)[C@@H]6CC[C@]54C)[C@@H]3C2)cc1 [Compound 19, trans-4-Hydroxycinnamic acid methyl ester 3β-hydroxy-11-oxo-olean-12-en-30-oate] | 29.6 ± 1.16 µM | 20.3 ± 1.47 µM | 14.4 ± 0.52 µM |
| 215 to 217 °C | COC(=O)/C=C/c1ccc(OC)c(OC(=O)[C@@]2(C)CC[C@]3(C)CC[C@]4(C)C(=CC(=O)[C@@H]5[C@@]6(C)CC[C@H](O)C(C)(C)[C@@H]6CC[C@]54C)[C@@H]3C2)c1 [Compound 21, Isoferulic acid methyl ester 3β-hydroxy-11-oxo-olean-12-en-30-oate] | 18.6 ± 0.54 µM | 8.54 ± 0.67 µM | 7.31 ± 0.16 µM |
| 210 to 213 °C | CCOC(=O)/C=C/c1ccc(OC)c(OC(=O)[C@@]2(C)CC[C@]3(C)CC[C@]4(C)C(=CC(=O)[C@@H]5[C@@]6(C)CC[C@H](O)C(C)(C)[C@@H]6CC[C@]54C)[C@@H]3C2)c1 [Compound 22, Isoferulic acid ethyl ester 3β-hydroxy-11-oxo-olean-12-en-30-oate] | 21.1 ± 0.73 µM | 19.3 ± 1.01 µM | 9.41 ± 1.03 µM |
| 188 to 190 °C | COC(=O)/C=C/c1cccc(OC(=O)[C@@]2(C)CC[C@]3(C)CC[C@]4(C)C(=CC(=O)[C@@H]5[C@@]6(C)CC[C@H](O)C(C)(C)[C@@H]6CC[C@]54C)[C@@H]3C2)c1 [Compound 23, trans-3-Hydroxycinnamic acid methyl ester 3β-hydroxy-11-oxo-olean-12-en-30-oate] | 24.1 ± 0.88 µM | 14.9 ± 0.75 µM | 20.8 ± 1.2 µM |
